From patent US20130281397A1, “TREATMENT OF DISEASES BY EPIGENETIC REGULATION” (RVX Therapeutics Inc., priority 2012, published 2013)
Where a name gives a salt, the structure may show the parent alone.

molecular target: T1, Brd4 bromodomain 1 (Homo sapiens, UniProt O60885); experiment: Inhibition of binding of tetra-acetylated histone H4 and Brd4 bromodomain 1 by TR-FRET; conditions: His-tagged bromodomain 200 nM, biotinylated tetra-acetylated histone H4 peptide 25-50 nM, 2 hours at room temperature
T1 construct: made in house; host or cells: E. coli BL21(DE3)
Experimental: Proteins were cloned and overexpressed with a N-terminal 6×His tag, then purified by nickel affinity followed by size exclusion chromatography. Briefly, E. coli BL21(DE3) cells were transformed with a recombinant expression vector encoding N-terminally […] tagged bromodomains from Brd2, Brd3, or Brd4. Cell cultures were incubated at 37° C. with shaking to the appropriate density and induced overnight with IPTG. The supernatant of lysed cells was loaded onto Ni-IDA column for purification. Eluted protein was pooled, concentrated and further purified by size exclusion chromatography. Fractions representing monomeric protein were pooled, concentrated, aliquoted, and frozen at −80° C. for use in subsequent experiments.
For inhibition assays, serially diluted test compound was added to these reactions in a 0.2% final concentration of DMSO. Final buffer concentrations were 30 mM HEPES pH 7.4, 30 mM NaCl, 0.3 mM CHAPS, 20 mM phosphate pH 7.0, 320 mM KF, 0.08% BSA). […] The binding inhibitory activity was shown by a decrease in 665 nm fluorescence relative to 620 nm. IC50 values were determined from a dose response curve.

| Compound | FRET activity (<50 uM) |
| --- | --- |
| COc1cc(OC)c2c(=O)[nH]c(-c3ccc(O)cc3)nc2c1 [Example 19, 2-(4-hydroxyphenyl)-5,7-dimethoxyquinazolin-4(3H)-one] | Active |
| COc1cc(OC)c2c(=O)[nH]c(-c3cc(C)c(OCCNC(=O)c4ccccc4)c(C)c3)nc2c1 [Example 107, N-(2-(4-(5,7-dimethoxy-4-oxo-3,4-dihydroquinazolin-2-yl)-2,6-dimethylphenoxy)ethyl)benzamide] | Active |
| COc1cc(OC)c2c(=O)[nH]c(-c3ccc(OCCO)c(C)c3)nc2c1 [Example 91, 2-(4-(2-hydroxyethoxy)-3-methylphenyl)-5,7-dimethoxyquinazolin-4(3H)-one] | Active |
| N=C(N)NCCC[C@H](N)C(=O)Oc1ccc(-c2cc3ccccc3c(=O)[nH]2)cc1 (stereo in doubt) [Example 2, 4-(1-Oxo-1,2-dihydroisoquinolin-3-yl)phenyl 2-amino-5-guanidinopentanoate trihydrochloride] | Active |
| COc1cc2cc(-c3cc(C)c(O)c(C)c3)n(C)c(=O)c2c(OC)c1CN1CCOCC1 [Example 14, 3-(4-hydroxy-3,5-dimethylphenyl)-6,8-dimethoxy-2-methyl-7-(morpholinomethyl)isoquinolin-1(2H)-one] | Inactive |
| COc1cc(OC)c2c(=O)[nH]c(-c3cc(C)cc(C)c3)nc2c1 [Example 86, 2-(3,5-dimethylphenyl)-5,7-dimethoxyquinazolin-4(3H)-one] | Active |
| COc1cc(OC)c2c(=O)[nH]c(-c3cc(C)c(OCCN4CCN(C)CC4)c(C)c3)cc2c1 [Example 18, 3-(3,5-dimethyl-4-(2-(4-methylpiperazin-1-yl)ethoxy)phenyl)-6,8-dimethoxyisoquinolin-1(2H)-one] | Active |
| COc1cc(OC)c2c(=O)[nH]c(-c3ccc(OCC(=O)O)cc3)nc2c1 [Example 20, 2-(4-(5,7-dimethoxy-4-oxo-3,4-dihydroquinazolin-2-yl)phenoxy)acetic acid] | Active |
| COc1cc(OC)c2c(=O)[nH]c(-c3cc(C)c(/N=C/N(C)C)c(C)c3)nc2c1 [Example 87, (E)-N′-(4-(5,7-dimethoxy-4-oxo-3,4-dihydroquinazolin-2-yl)-2,6-dimethylphenyl)-N,N-dimethylformimidamide] | Active |
| COc1cc(OC)c2c(=O)[nH]c(-c3ccncc3)nc2c1 [Example 28, 5,7-dimethoxy-2-(pyridin-4-yl)quinazolin-4(3H)-one] | Inactive |
| COc1cc(OC)c2c(=O)[nH]c(-c3cc(C)c(OCCNS(=O)(=O)c4ccccc4)c(C)c3)nc2c1 [Example 103, N-(2-(4-(5,7-dimethoxy-4-oxo-3,4-dihydroquinazolin-2-yl)-2,6-dimethylphenoxy)ethyl)benzenesulfonamide] | Inactive |
| Cc1cc(-c2nc3ccc(Br)cc3c(=O)[nH]2)cc(C)c1OCCO [Example 89, 6-bromo-2-(4-(2-hydroxyethoxy)-3,5-dimethylphenyl)quinazolin-4(3H)-one] | Inactive |
| COc1cc(OC)c2c(=O)[nH]c(-c3cc(C)c(OCCNS(=O)(=O)c4ccc(C)cc4)c(C)c3)nc2c1 [Example 104, N-(2-(4-(5,7-dimethoxy-4-oxo-3,4-dihydroquinazolin-2-yl)-2,6-dimethylphenoxy)ethyl)-4-methylbenzenesulfonamide] | Inactive |
| CNC(=O)NCCOc1c(C)cc(-c2nc3cc(OC)cc(OC)c3c(=O)[nH]2)cc1C [Example 109, 1-(2-(4-(5,7-dimethoxy-4-oxo-3,4-dihydroquinazolin-2-yl)-2,6-dimethylphenoxy)ethyl)-3-methylurea] | Active |
| COc1cc(O)nc2cc(-c3cc(C)c(O)c(C)c3)[nH]c(=O)c12 [Example 9, 2-hydroxy-7-(4-hydroxy-3,5-dimethylphenyl)-4-methoxy-1,6-naphthyridin-5(6H)-one] | Inactive |
| COc1cc(OC)c2c(=O)[nH]c(-c3ccc(CN4CCOCC4)cc3)nc2c1 [Example 61, 5,7-dimethoxy-2-(4-(morpholinomethyl)phenyl)quinazolin-4(3H)-one] | Active |
| COc1cc(OC)c2c(=O)[nH]c(-c3cc(C)c(OCCNC(=O)Nc4ccccc4)c(C)c3)nc2c1 [Example 111, 1-(2-(4-(5,7-dimethoxy-4-oxo-3,4-dihydroquinazolin-2-yl)-2,6-dimethylphenoxy)ethyl)-3-phenylurea] | Active |
| COc1cccc2nc(-c3cc(C)c(OCCO)c(C)c3)[nH]c(=O)c12 [Example 78, 2-(4-(2-hydroxyethoxy)-3,5-dimethylphenyl)-5-methoxyquinazolin-4(3H)-one] | Active |

| Compound | FRET activity (<50 uM) |
| --- | --- |
| CNC(=O)c1ccccc1C(=O)NCCOc1c(C)cc(-c2nc3cc(OC)cc(OC)c3c(=O)[nH]2)cc1C [Example 93, N1-(2-(4-(5,7-dimethoxy-4-oxo-3,4-dihydroquinazolin-2-yl)-2,6-dimethylphenoxy)ethyl)-N2-methylphthalamide] | Active |
| COc1cc(OC)c2c(=O)[nH]c(-c3cc(C)c(OCCN4CCOCC4)c(C)c3)cc2c1 [Example 15, 3-(3,5-dimethyl-4-(2-morpholinoethoxy)phenyl)-6,8-dimethoxyisoquinolin-1(2H)-one] | Active |
| COc1cc(OC)c2c(=O)[nH]c(-c3ccccc3Cl)nc2c1 [Example 77, 2-(2-chlorophenyl)-5,7-dimethoxyquinazolin-4(3H)-one] | Inactive |
| Cc1cc(-c2nc3ccc(Br)cc3c(=O)[nH]2)cc(C)c1O [Example 88, 6-bromo-2-(4-hydroxy-3,5-dimethylphenyl)quinazolin-4(3H)-one] | Inactive |
| COc1cc(OC)c2c(=O)[nH]c(-c3cc(C)c(OCCNC(=O)C(C)C)c(C)c3)nc2c1 [Example 108, N-(2-(4-(5,7-dimethoxy-4-oxo-3,4-dihydroquinazolin-2-yl)-2,6-dimethylphenoxy)ethyl)isobutyramide] | Active |
| COc1cc(OC)c2c(=O)[nH]c(-c3cc(C)c(OCCOC(=O)NC4CCCCC4)c(C)c3)nc2c1 [Example 102, 2-(4-(5,7-dimethoxy-4-oxo-3,4-dihydroquinazolin-2-yl)-2,6-dimethylphenoxy)ethyl cyclohexylcarbamate] | Active |
| COc1cc(OC)c2c(=O)[nH]c(-c3ccc(O)c(C)c3)nc2c1 [Example 92, 2-(4-hydroxy-3-methylphenyl)-5,7-dimethoxyquinazolin-4(3H)-one] | Active |
| COc1cc(OC)c2c(=O)[nH]c(-c3cccc(-c4ccc(S(C)(=O)=O)cc4)n3)nc2c1 [Example 80, 5,7-dimethoxy-2-(6-(4-(methylsulfonyl)phenyl)pyridin-2-yl)quinazolin-4(3H)-one] | Active |
| CCCNC(=O)OCCOc1c(C)cc(-c2nc3cc(OC)cc(OC)c3c(=O)[nH]2)cc1C [Example 99, 2-(4-(5,7-Dimethoxy-4-oxo-3,4-dihydroquinazolin-2-yl)-2,6-dimethyl-phenoxy)ethyl propylcarbamate] | Active |
| COc1cc(OC)c2c(=O)[nH]c(-c3cc(C)c(OCCNC(=O)c4ccc(C)cc4)c(C)c3)nc2c1 [Example 101, N-(2-(4-(5,7-Dimethoxy-4-oxo-3,4-dihydroquinazolin-2-yl)-2,6-dimethylphenoxy)ethyl)-4-methylbenzamide] | Active |
| COc1cc(OC)c2c(=O)[nH]c(-c3ccccn3)nc2c1 [Example 21, 5,7-dimethoxy-2-(pyridin-2-yl)quinazolin-4(3H)-one] | Active |
| COc1cc(OC)c2c(=O)[nH]c(-c3cc(C)c(O)c(C)c3)cc2n1 [Example 13, 7-(4-hydroxy-3,5-dimethylphenyl)-2,4-dimethoxy-1,6-naphthyridin-5(6H)-one] | Active |
| COc1ccc(NC(=O)NCCOc2c(C)cc(-c3nc4cc(OC)cc(OC)c4c(=O)[nH]3)cc2C)cc1 [Example 110, 1-(2-(4-(5,7-dimethoxy-4-oxo-3,4-dihydroquinazolin-2-yl)-2,6-dimethylphenoxy)ethyl)-3-(4-methoxyphenyl)urea] | Inactive |
| COc1cc(OC)c2c(=O)[nH]c(-c3cc(C)c(OC)c(C)c3)nc2c1 [Example 84, 5,7-dimethoxy-2-(4-methoxy-3,5-dimethylphenyl)quinazolin-4(3H)-one] | Active |
| Cc1cc(-c2nc3ccccc3c(=O)[nH]2)cc(C)c1OCCN1CCOCC1 [Example 29, 2-(3,5-dimethyl-4-(2-morpholinoethoxy)phenyl)quinazolin-4(3H)-one] | Inactive |
| COc1cc(OC)c2c(=O)[nH]c(-c3ccc(N4CCOCC4)cc3)nc2c1 [Example 44, 5,7-dimethoxy-2-(4-morpholinophenyl)quinazolin-4(3H)-one] | Active |
| COc1cc(OC)c2c(=O)[nH]c(-c3cc(C)c(N)c(C)c3)nc2c1 [Example 85, 2-(4-amino-3,5-dimethylphenyl)-5,7-dimethoxyquinazolin-4(3H)-one] | Active |
| COc1cc(OC)c2c(=O)[nH]c(-c3cc(C)c(OCCO)c(C)c3)cc2c1 [Example 6, 3-(4-(2-hydroxyethoxy)-3,5-dimethylphenyl)-6,8-dimethoxyisoquinolin-1(2H)-one] | Active |
